Measurements from patent US20220409629A1, “BENZODIAZEPINE DERIVATIVES FOR TREATING A RESPIRATORY SYNCYTIAL VIRUS (RSV) INFECTION” (priority 2019, published 2022).

How the values were obtained:
[1] = Liver microsomal stability, dog; type: in vitro ADME; conditions: pH 7.4; dog liver microsomes, 0.5 mg/mL protein, 1 μM compound, NADPH; >80% remaining at 45 min denoted >140; read-out: Liver Microsomal Stability: t1/2 (min); dog
Procedure, shortened: (§1)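 Pooled liver microsomes (0.5 mg/mL protein) in 0.1 M phosphate pH 7.4 with 1 μM compound (0.25% DMSO), started with 1 mM NADPH at 37° C; sampled 0-45 min, minus-NADPH control 45 min. LC-MS/MS depletion slope gave t1/2 and CLint.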

[2] = Liver microsomal stability, rat; type: in vitro ADME; conditions: pH 7.4; rat liver microsomes, 0.5 mg/mL protein, 1 μM compound, NADPH; >80% remaining at 45 min denoted >140; read-out: Liver Microsomal Stability: t1/2 (min); rat
Procedure, shortened: as §1

[3] = Liver microsomal stability, human; type: in vitro ADME; conditions: pH 7.4; human liver microsomes, 0.5 mg/mL protein, 1 μM compound, NADPH; >80% remaining at 45 min denoted >140; read-out: Liver Microsomal Stability: t1/2 (min); human
Procedure, shortened: as §1

[4] = Rat pharmacokinetics in vivo; conditions: male Sprague Dawley rats; for C 8 h / Cmax: doses 1 mg/kg (IV) and 10 mg/kg (PO); for Vd / clearance / bioavailability / half-life / AUC(0-t) / Cmax: rat, in vivo; for AUC(0-t): read-out: PO AUClast
Procedure: The pharmacokinetics of compounds were studied in vivo in rats at doses of 1 mg/kg (IV) and 10 mg/kg (PO).
Male rats (Sprague Dawley) surgically prepared with a jugular vein cannula were treated with experimental compounds via intravenous administration (IV; n=3; 1 mg/kg) or oral administration (PO; n=3; 10 mg/kg). Compounds were formulated as a solution in 40:60 dimethylacetamide:saline (IV administration), a suspension in 1% methyl cellulose (viscosity: 15 cP), 0.1% Tween80 in water (PO administration: Example 3), a solution in 10% DMSO/10% Cremaphor/80% water (PO administration: Examples 4, 11, 21, 23, 25, 26, 32) or a solution in 10% DMSO/20% Cremaphor/70% water (PO administration: Examples 19, 20, 22, 24, 30). […] Serial blood samples were collected via the cannula at 0.02, 0.08, 0.25, 0.5, 1, 2, 4, 6, 8 and 24 h post IV dosing of compound, and at 0.08, 0.25, 0.5, 1, 2, 4, 6, 8 and 24 h post oral dosing of compound, and plasma was prepared by centrifugation and stored immediately at −80° C. Samples were subsequently thawed, prepared for analysis by protein precipitation with acetonitrile, and analysed by tandem LCMS using electrospray ionisation using a matrix-matched calibration curve. PK parameters were calculated from the resulting data.

[5] = test system: RSV A2; test: RSV plaque reduction assay; type: cell-based, respiratory syncytial virus (RSV); conditions: human respiratory syncytial virus, HepG2; Hep-G2 cells, RSV A2, mean of at least two experiments
Procedure, shortened: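 RSV A2 (100 PFU/well) premixed with eight serial compound dilutions, added to confluent Hep-G2 monolayers for 2 h at 37° C, then held 2 days under CMC overlay containing compound (DMEM, 2% FBS). Plaques immunostained (HRP/TrueBlue) and counted; EC50 is 50% reduction versus virus control from 4-parameter fit, mean of ≥2 experiments.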

[6] = Liver hepatocyte stability, rat; type: in vitro ADME; conditions: rat hepatocytes, 3 μM compound, 60 min, >80% remaining at 60 min denoted >186, read-out: Liver Hepatocyte Stability: t1/2 (min)
Procedure: (§2) Cryopreserved pooled hepatocytes were purchased from a reputable commercial supplier and stored in liquid nitrogen prior to use. Williams E media supplemented with 2 mM L-glutamine and 25 mM HEPES and test compound (final substrate concentration 3 μM; final DMSO concentration 0.25%) are pre-incubated at 37° C. prior to the addition of a suspension of cryopreserved hepatocytes (final cell density 0.5×10^6 viable cells/mL in Williams E media supplemented with 2 mM L-glutamine and 25 mM HEPES) to initiate the reaction. The final incubation volume is 500 μL. Two control compounds were included with each species, alongside appropriate vehicle control. The reactions are stopped by transferring 50 μL of incubate to 100 μL acetonitrile containing internal standard at the appropriate time points. Samples were removed at 6 time points (0, 5, 15, 30, 45 and 60 min) over the course of a 60 min experiment. The termination plates are centrifuged at 2500 rpm at 4° C. for 30 min to precipitate the protein. Following protein precipitation, the sample supernatants were combined in cassettes of up to 4 compounds and analysed using generic LC-MS/MS conditions. From a plot of ln peak area ratio (compound peak area/internal standard peak area) against time, the gradient of the line is determined. Subsequently, half-life (t1/2) and intrinsic clearance (CLint) were calculated.

[7] = Liver hepatocyte stability, human; type: in vitro ADME; conditions: human hepatocytes, 3 μM compound, 60 min, >80% remaining at 60 min denoted >186, read-out: Liver Hepatocyte Stability: t1/2 (min)
Procedure: as §2

[8] = Cell cytotoxicity CC50; type: cell-based; conditions: human; mean of at least two experiments
[9] = Liver hepatocyte stability, dog; type: in vitro ADME; conditions: dog hepatocytes, 3 μM compound, 60 min, >80% remaining at 60 min denoted >186, read-out: Liver Hepatocyte Stability: t1/2 (min)
Procedure: as §2

[10] = IV 1 mg/kg, read-out: IV t½ (converted)
[11] = PO 10 mg/kg, read-out: PO t½ (converted)

Compound | half-life [1] [min] | half-life [2] [min] | half-life [3] [min] | C 8 h [4] [ng/mL] | Vd ([4]; IV 1 mg/kg) [L/kg] | clearance ([4]; IV 1 mg/kg) [mL/min/kg] | bioavailability ([4]; IV 1 mg/kg, PO 10 mg/kg) [%] | half-life [4, 10] [min] | AUC(0-t) ([4]; PO 10 mg/kg) [ng·h/mL] | half-life [4, 11] [min] | Cmax [4] [ng/mL] | EC50 [5] [nM] | half-life [6] [min] | half-life [7] [min] | CC50 [8] [µM] | half-life [9] [min]
CCn1ncc(C(=O)N[C@H]2N=C(c3ccccc3)c3cccc(F)c3NC2=O)c1-c1ccc(NC2CC2)nc1F [Example 11, 5-[6-(Cyclopropylamino)-2-fluoropyridin-3-yl]-1-ethyl-N-[(3S)-9-fluoro-2-oxo-5-phenyl-1,3-dihydro-1,4-benzodiazepin-3-yl]pyrazole-4-carboxamide] | 24 | 76.3 | 82.4 | 673 | 2 | 13.9 | 93 | 192 | 11200 | 132 | 984 | 62 | 151 | 194 | > 25 | 48.2
O=C(N[C@H]1N=C(c2ccccc2)c2cccc(F)c2NC1=O)c1cnn(C2COC2)c1-c1ccc(NC2CC2)nc1F [Example 19, 5-[6-(Cyclopropylamino)-2-fluoropyridin-3-yl]-1-(oxetan-3-yl)-N-[(3S)-9-fluoro-2-oxo-5-phenyl-1,3-dihydro-1,4-benzodiazepin-3-yl]pyrazole-4-carboxamide] | 90.8 | > 140 | 154 | 315 | 1.6 | 14.3 | 64.6 | 102 | 7290 | 180 | 1320 | 37 | 185 | > 186 | > 25 | 72.2
O=C(N[C@H]1N=C(c2ccccc2)c2ccccc2NC1=O)c1cnn(C2CCOCC2)c1-c1ccc(NC2CC2)nc1F [Example 20, 5-[6-(Cyclopropylamino)-2-fluoropyridin-3-yl]-N-[(3S)-2-oxo-5-phenyl-1,3-dihydro-1,4-benzodiazepin-3-yl]-1-(oxan-4-yl)pyrazole-4-carboxamide] | 325 | 116 | 83.1 | 25.7 | 2.9 | 32.9 | 23.9 | 90 | 1170 | 84 | 258 | 59 | 115 | 190 | > 25 | > 186
CC(C)Nc1ccc(-c2c(C(=O)N[C@H]3N=C(c4ccccc4)c4ccccc4NC3=O)cnn2C2CCOCC2)c(F)n1 [Example 23, 5-[2-Fluoro-6-(propan-2-ylamino)pyridin-3-yl]-1-(oxan-4-yl)-N-[(3S)-2-oxo-5-phenyl-1,3-dihydro-1,4-benzodiazepin-3-yl]pyrazole-4-carboxamide] |  |  |  | 146 | 1.7 | 12.2 | 34.7 | 132 | 4630 | 180 | 930 | 50 | 96.7 | > 186 | > 25 | 127
CCNc1ccc(-c2c(C(=O)N[C@H]3N=C(c4ccccc4)c4ccccc4NC3=O)cnn2C2CCOCC2)c(F)n1 [Example 42, 5-[6-(Ethylamino)-2-fluoropyridin-3-yl]-1-(oxan-4-yl)-N-[(3S)-2-oxo-5-phenyl-1,3-dihydro-1,4-benzodiazepin-3-yl]pyrazole-4-carboxamide] | 480 | 85.8 | 194 |  |  |  |  |  |  |  |  | 41 | 72.3 | 421 | > 25 | 100
